Source: publication PMC9016803, “Mitochondria-targeted half-sandwich iridium(III)-Cp*-arylimidazophenanthroline complexes as antiproliferative and bioimaging agents against triple negative breast cancer cells MDA-MB-468” (RSC Advances, 2022)

Legend:
BSA = target: T1, BSA (Bos taurus, UniProt P02769); assay: BSA binding, tryptophan emission quenching; parameters: species or system bovine
T1 construct: purchased Sigma Aldrich Chemical Limited
Experimental: Upon excitation at 295 nm, the emission intensity of BSA at λem = 350 nm decreased gradually on increasing the complex concentration, which confirmed that the interaction between complex IrL1 with BSA had occurred, as observed in Fig. 8. The Stern–Volmer quenching constant of these complexes with BSA (KBSA) was calculated using the Stern–Volmer equation and the corresponding Stern–Volmer plots (Fig. 8, inset). The binding affinity (K) of the complexes was calculated from Scatchard plot analysis (Fig. 8, inset). […]
Kapp × [Complex]50 = kEtBr × [EtBr]⋯⋯⋯(iii) […]
Stern-Volmer equation was followed for quantitative determination of the Stern-Volmer quenching constant (K SV).5 Origin (8.5) software was used to plot the fluorescence data to obtain linear plot of I0/I vs. [complex]. The value of KSV was calculated from the following […]
Where I0 = fluorescence intensity in absence of complex and I = fluorescence intensities in presence of complex of concentration [Q].
We are acquainted with the fact that serum albumin proteins are the main component. […] After each addition, the solutions were shaken slowly for 5 min before recording the fluorescence at a wavelength of 295 nm (λex = 295 nm). A gradual decrease in fluorescence intensity of BSA at λ = 340 nm was observed upon increasing the concentration of complex, which confirmed […]
that the interaction between the complex and BSA was happened. Stern-Volmer equation was employed to quantitatively determine the quenching constant (K BSA). […]
Where I0 is the fluorescence intensity of BSA in absence of complex and I indicates the fluorescence intensity of BSA in presence of complex of concentration [Q], τ0 = lifetime of the tryptophan in BSA found as 1 x 10-8 and kq is the quenching constant. […]
To allow the phase separation, the solution was centrifuged for 10 min at 3000 rpm. […] Aliquots of the aqueous and octanol layers were pipetted out separately and the absorbances were measured with UV-Vis spectrophotometer using proper dilution. […]

MDA-MB-468 cells = assay: Annexin V-FITC/PI apoptosis assay; format: cell-based; conditions: 3 μM
CT-DNA = assay: DNA binding by UV-visible absorption titration; parameters: species or system calf; conditions: for Change in absorbance: on addition of CT-DNA
Experimental: To design effective chemotherapeutic drugs, it is essential to explore the interactions of metal complexes with DNA. […] DNA base pairs such as purine (adenine and guanine) and pyrimidine (cytosine and thymine) analogues are responsible for electronic transitions. Upon the addition of CT-DNA in increasing concentration from 5 μM to 60 μM, we observed a hyperchromic shift in π–π* region and hypochromic shift at the MLCT region resulting in the appearance of an isosbestic point, which indicates the prevalence of […] interaction of the complex with DNA together with the intercalative mode of interaction (Fig. 6).
Electronic absorption spectroscopy was used to study the binding capacity of the complexes with calf-thymus DNA (Ct-DNA) and competitive binding assay as studied using ethidium bromide (EtBr) as quencher by fluorescence spectroscopy.
DNA binding assay was carried out by using complexes IrL5 in Tris-HCl buffer (5 mM Tris-HCl in water, pH 7.4) in aqueous medium. The concentration of Ct-DNA was calculated from its absorbance intensity at 260 nm and its known molar absorption coefficient value of 6600 M-1cm-1. Equal amount of DNA was added in both the sample and reference in cuvettes.
Titration was carried out by increasing concentration of CT-DNA. On the eve of each measurement, sample was equilibrated with CT-DNA for about 5 min and then absorbance of the complex was measured. The intrinsic DNA binding constant (K b) was calculated using the […]
[DNA] = [DNA] + 1 L L (i) […]
Where [DNA] is the concentration of DNA in the base pairs, εa is the apparent extinction coefficient observed for the complex, εf corresponds to the extinction coefficient of the complex in its free form, and εb refers to the extinction coefficient of the complex when fully bound to DNA. The resultant data were plotted using Origin Lab, version 8.5 to obtain the [DNA]/(ε a-εf) vs. [DNA] linear plot. The ratio of the slope to intercept from the linear fit gave the values of the intrinsic binding constants ( Kb).
UV and Fluorescence study […]
φ = φR × I × OD × η ⋯⋯⋯(ii)

T1 sequence (P02769 25-607): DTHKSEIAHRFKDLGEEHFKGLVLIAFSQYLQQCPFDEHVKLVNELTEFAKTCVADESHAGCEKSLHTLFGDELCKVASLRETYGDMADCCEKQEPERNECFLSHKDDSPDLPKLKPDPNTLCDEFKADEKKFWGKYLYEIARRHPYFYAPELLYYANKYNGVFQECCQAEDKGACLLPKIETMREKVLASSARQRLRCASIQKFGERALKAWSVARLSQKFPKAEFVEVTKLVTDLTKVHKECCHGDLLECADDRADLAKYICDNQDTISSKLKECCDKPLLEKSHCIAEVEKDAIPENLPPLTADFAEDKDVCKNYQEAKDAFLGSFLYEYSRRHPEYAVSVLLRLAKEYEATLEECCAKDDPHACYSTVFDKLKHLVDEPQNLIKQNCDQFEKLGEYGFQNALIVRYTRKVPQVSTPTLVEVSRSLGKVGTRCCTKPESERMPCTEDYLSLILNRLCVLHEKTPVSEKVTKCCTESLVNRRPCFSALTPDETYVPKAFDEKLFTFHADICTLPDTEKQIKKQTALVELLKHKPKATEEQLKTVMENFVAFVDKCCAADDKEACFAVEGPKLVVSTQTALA

Substance: [Iridium(III)-Cp*-2-(naphthalen-1-yl)-1H-imidazo[4,5-f][1,10]phenanthroline]PF6 [IrL1]
- K, binding affinity (Scatchard plot) (BSA; BSA): 6.3e+06 M⁻¹
- kq, bimolecular quenching constant (BSA; calculated from KSV and τ0 (1 × 10^−8 s)): 5 × 10^12 M^−1 S^−1
- KBSA, Stern–Volmer quenching constant with BSA (BSA; excitation 295 nm): 50000 M⁻¹
- early apoptotic cells (MDA-MB-468 cells): ~34.89%
- viable cell population (MDA-MB-468 cells): ~51.37%
- Δε (% change in hypochromism or hyperchromism) (CT-DNA; λmax 250 nm, hyperchromism): 60%
- Change in absorbance (CT-DNA; λmax 250 nm): Hyperchromism
- Δε (% change in hypochromism or hyperchromism) (CT-DNA; λmax 305 nm, hypochromism): 25%
- Change in absorbance (CT-DNA; λmax 305 nm): Hypochromism
